Test results published in publication PMC6380468, “Investigations on small molecule inhibitors targeting the histone H3K4 tri-methyllysine binding PHD-finger of JmjC histone demethylases” (Bioorganic & Medicinal Chemistry, 2018).

What was measured:
[1] = tested on: KDM7A (PHD-JmjC); experiment: MALDI-TOF MS H3K9me2 demethylation assay, KDM7A(PHD-JmjC); assay type: biochemical, human; details: at 100 µM, substrate H3(1–15)K9me2
Protocol: Final concentrations were: 1mM ascorbate, 50 µM (NH4)2Fe(II)(SO4)2 and 200 µM 2OG. The mixture was quenched using formic acid after 10 minutes (KDM7A) or 5 minutes (KDM7B).

[2] = molecular target: T1, KDM5A_c2 (ΔARID/PHD1) (Homo sapiens, UniProt P29375); experiment: MALDI-TOF MS H3K4me3 demethylation assay, KDM5A_c2; assay type: biochemical; details: average ± StdDev of n = 2, read-out: IC50, inhibition of H3K4me3 demethylation activity, KDM5A_c2
T1 sequence (P29375 with tags, fused parts or gaps): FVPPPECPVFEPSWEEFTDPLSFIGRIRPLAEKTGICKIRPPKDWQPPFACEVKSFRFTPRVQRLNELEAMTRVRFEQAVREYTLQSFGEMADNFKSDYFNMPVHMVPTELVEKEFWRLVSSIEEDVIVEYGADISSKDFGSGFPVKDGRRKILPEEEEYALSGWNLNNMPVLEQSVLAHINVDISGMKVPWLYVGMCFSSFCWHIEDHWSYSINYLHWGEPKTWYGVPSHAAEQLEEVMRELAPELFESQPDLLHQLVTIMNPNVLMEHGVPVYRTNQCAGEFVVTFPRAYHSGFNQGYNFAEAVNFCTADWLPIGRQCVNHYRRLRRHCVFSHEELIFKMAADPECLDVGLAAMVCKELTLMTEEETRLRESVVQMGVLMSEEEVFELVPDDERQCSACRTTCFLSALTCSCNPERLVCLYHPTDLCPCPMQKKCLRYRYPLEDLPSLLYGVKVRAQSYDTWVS
Protocol: Two catalytically active constructs of KDM5A were employed, KDM5A_c1 (M1-L801) and KDM5A_c2 (ΔARID/PHD1, P13-S744 with L88-G353 (ARID/PHD1) replaced with a GGGG linker) and both KDM5A_c1 and KDM5A_c2 constructs lack the PHD2 and PHD3. […] A MALDI-TOF MS assay was used to measure the activity of H3K4me3 demethylation in the presence of inhibitors (Table 2, Fig. 3C and D).
The KDM5A mixture (5 µL, KDM5A-c1: 1.0 µM or KDM5A-c2: 0.5 µM) was pre-incubated with 100 nL inhibitors (in DMSO) for 10 min. […] The mixture was quenched using formic acid (5 µL, 1 v/v% in MQ) after 4 minutes (KDM5A-c1) or 3 minutes (KDM5A-c2). The stopped reaction (1 µL) was mixed with […] (CHCA) MALDI matrix (saturated solution in TFA (0.1%) in MilliQ water and trifluoroacetic acid (0.1%) acetonitrile (1:1)) at 1:1 ratio (2 µL), air dried and analysed using Bruker microflex MALDI-TOF controlled with FlexControl. The data were further processed using FlexAnalysis and excel.

[3] = molecular target: T2, KDM7A(PHD) (Homo sapiens, UniProt Q6ZMT4); experiment: AlphaScreen displacement of H3K4me3-Bn from His-KDM7A(PHD); assay type: binding; details: AlphaScreen; 6.25 nM KDM7A(PHD) and 25 nM peptide; n ≥ 3; read-out: IC50 for displacement of H3K4me3-Bn from His-KDM7A(PHD)
T2 construct: made in house
T2 sequence (Q6ZMT4 37-88 limits assumed): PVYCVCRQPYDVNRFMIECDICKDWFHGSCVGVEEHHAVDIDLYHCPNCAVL
Protocol: For peptide displacement assays, 5 µL of the inhibitor dilution series (at a concentration of 4% DMSO in AlphaScreen assay buffer) was pre-incubated with 5 µL of the protein at RT for 15 minutes. Peptide solution (5 µL) was added and incubated for 30 minutes at RT, followed by the addition of 5 µL of a mixture of AlphaScreen Streptavidin donor beads and Nickel Chelate acceptor beads in AlphaScreen assay buffer (20 µg/mL final). The contents were incubated for 60-120 minutes at RT in the dark, followed by measurement of luminescence on a BMG Labtech Pherastar plate reader (Software Ver. 5.30 R3, Firmware Ver. 1.21). The data was plotted in Prism Ver 7.01 (GraphPad Software, Inc.) and fitted to a Log(inhibitor) v/s response – variable slope model in order to obtain IC50 values.

[4] = molecular target: T3, KDM5A_c2 (Homo sapiens, UniProt P29375); experiment: Formaldehyde dehydrogenase (FDH) enzyme-coupled fluorescence assay, kinetic analysis; assay type: biochemical
T3 sequence (P29375 with tags, fused parts or gaps): T1 sequence (P29375 with tags, fused parts or gaps)
Protocol: Enzyme mixture (25 µL) containing KDM5A-c2 (0.5 µM) and FDH (2.0 µM) in FDH buffer [50mM HEPES (50 mM), Tween20 (0.1%), NaCl (50 mM), pH 7.5 in MQ)] was prepared and aliquoted in a 384-well flat-bottom microplate (µClear, Greiner). The peptide mixture (25 µL) [ascorbate (2 mM), (NH4)2Fe(II)(SO4)2 (100 µM), 2OG (400 µM), H3(1-21)K4me3 peptide (ranging from 0 to 100 µM), β-NAD (500 µM), 2a (0 to 160 µM, in DMSO (2% final in this solution)) in FDH buffer] was added to initiate the reaction and the fluorescence was monitored (every 30 seconds over 25 min at 25.0 °C) using the PHERAstar (BMG LABTECH). The initial rates at each peptide concentrations were used to generate the Michaelis-Menten plots. Combined datasets from two independent experiments were globally fitted to a mixed inhibition model using Prism Ver 7.01, and Ki and α values were determined. Lineweaver-Burk plots were also generated using Prism Ver 7.01

[5] = KDM5A_c2, mixed inhibition model, with respect to H3K4me3 substrate, N=2

SMILES	KDM7A (PHD-JmjC) (Catalytic), inhibition of H3K9me2 demethylation [1]	IC50 [2] [µM]	IC50 [3] [µM]	substrate of KDM5A_c2 (formaldehyde production in the absence of H3K4me3) ([4]; FDH coupled assay, no H3K4me3)	mode of inhibition with respect to H3K4me3 ([4]; KDM5A_c2, Lineweaver-Burk plots)	Ki [4, 5] [µM]	α [4, 5]
CCCCc1oc2ccccc2c1C(=O)c1ccc(OCCCN(C)C)cc1 [Compound 1a, (2-Butylbenzofuran-3-yl)(4-(3-(dimethylamino)propoxy)phenyl)methanone]	100% (100 µM)	> 1000	333 ± 39	–	–	–	–
CCCCc1oc2ccccc2c1C(=O)c1ccc(OCCC[N+](C)(C)C)cc1.[I-] [Compound 2a, 3-(4-(2-Butylbenzofuran-3-carbonyl)phenoxy)-N,N,N-trimethylpropan-1-aminium iodide]	100% (100 µM)	37 ± 14	86 ± 9	not a substrate	non-competitive	74 ± 28	1.64 ± 0.85
